We go through 17 compounds from PubChem BioAssay AID270 (DTP/NCI, 2004).

This assay deals with BDF1 mice, s.c. Lewis lung carcinoma, T/C %. Kind of assay: NCI In Vivo Anticancer Drug Screen. Data for tumor model Lewis Lung Carcinoma (subcutaneous) in B6D2F1 (BDF1) mice. Put shortly: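 First, mice carry a transplantable tumor. Next, groups receive either compound or vehicle. Finally, survival or tumor dimensions in the dosed animals are divided by the corresponding control figure.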

The mark [1] stands for this setting: endpoint: median survival time, dose: 50.0 mg/kg/injection, schedule: Q01DX009 (ip), vehicle: Klucel (hydroxypropylcellulose) (HPC), higher = longer survival.
[2] abbreviates: endpoint: mean tumor weight, dose: 15.0 mg/kg/injection, schedule: Q01DX011 (ip), vehicle: saline, higher = larger tumour.

Where “and” joins values, the source holds several entries; their conditions need not be identical. Equal values may be shown once. Inconclusive results are not listed.

On to `NS(=O)(=O)c1ncnc2nc[nH]c12`, for which the T/C (endpoint: mean tumor weight, dose: 5.0 mg/kg/injection, schedule: Q01DX011 (ip), vehicle: methylcellulose (MC), higher = larger tumour) is 88 % of control and the T/C (endpoint: mean tumor weight, dose: 25.0 mg/kg/injection, schedule: Q01DX011 (ip), vehicle: methylcellulose (MC), higher = larger tumour) is 87 % of control.

For the compound `CC(C)(C)C(=O)O`, the T/C (endpoint: mean tumor weight, dose: 37.0 mg/kg/injection, schedule: Q01DX011 (ip), vehicle: other, higher = larger tumour) is 75 % of control; the T/C (endpoint: mean tumor weight, dose: 83.0 mg/kg/injection, schedule: Q01DX011 (ip), vehicle: other, higher = larger tumour) was 159 % of control; the T/C (endpoint: mean tumor weight, dose: 125.0 mg/kg/injection, schedule: Q01DX011 (ip), vehicle: other, higher = larger tumour) is 92 % of control.

As to `CN(C)[C@@H]1C(=O)C(C(N)=O)=C(O)[C@]2(O)C(=O)C3C(=O)c4c(O)ccc(Cl)c4[C@](C)(O)[C@H]3C[C@@H]12` (stereo partly drawn), the T/C is, setting by setting: (endpoint: median survival time, dose: 12.5 mg/kg/injection, schedule: Q01DX009 (ip), vehicle: Klucel (hydroxypropylcellulose) (HPC), higher = longer survival) 117 % of control; (endpoint: median survival time, dose: 25.0 mg/kg/injection, schedule: Q01DX009 (ip), vehicle: Klucel (hydroxypropylcellulose) (HPC), higher = longer survival) 120 % of control; under setting [1], 102 % of control and 123 % of control.

Take `C=C(C)[C@H]1Cc2c(ccc3c2O[C@@H]2COc4cc(OC)c(OC)cc4[C@@H]2C3=O)O1`: the T/C is, setting by setting: (endpoint: mean tumor weight, dose: 0.25 mg/kg/injection, schedule: Q01DX011 (ip), vehicle: water, higher = larger tumour) 76 % of control; (endpoint: mean tumor weight, dose: 0.5 mg/kg/injection, schedule: Q01DX011 (ip), vehicle: water, higher = larger tumour) 65 % of control; (endpoint: mean tumor weight, dose: 1.0 mg/kg/injection, schedule: Q01DX011 (ip), vehicle: water, higher = larger tumour) 60 % of control.

For the compound `C=COCC(C)C` (tested in a mixture with another compound), the T/C is, setting by setting: (endpoint: median survival time, dose: 1.25 mg/kg/injection, schedule: Q01DX009 (ip), vehicle: other, higher = longer survival) 101 % of control; (endpoint: median survival time, dose: 2.5 mg/kg/injection, schedule: Q01DX009 (ip), vehicle: other, higher = longer survival) 110 % of control; (endpoint: median survival time, dose: 5.0 mg/kg/injection, schedule: Q01DX009 (ip), vehicle: other, higher = longer survival) 107 % of control.

With `C[N+](C)(C)c1ncnc2nc[nH]c12`, the T/C is 87 % of control under setting [2]; 100 % of control (endpoint: mean tumor weight, dose: 30.0 mg/kg/injection, schedule: Q01DX011 (ip), vehicle: saline, higher = larger tumour); 55 % of control (endpoint: mean tumor weight, dose: 60.0 mg/kg/injection, schedule: Q01DX011 (ip), vehicle: saline, higher = larger tumour); 59 % of control (endpoint: mean tumor weight, dose: 120.0 mg/kg/injection, schedule: Q01DX011 (ip), vehicle: saline, higher = larger tumour).

Regarding `CC(NC(=O)C1(N)CCCC1)C(=O)O` (stereo not drawn), the T/C runs as follows: (endpoint: mean tumor weight, dose: 6.0 mg/kg/injection, schedule: Q01DX011 (ip), vehicle: carboxymethylcellulose (CMC), higher = larger tumour) 59 % of control; (endpoint: mean tumor weight, dose: 25.0 mg/kg/injection, schedule: Q01DX011 (ip), vehicle: carboxymethylcellulose (CMC), higher = larger tumour) 60 % of control.

`C=C(CC(=O)O)C(=O)O` (tested in a mixture with another compound): the T/C (endpoint: median survival time, dose: 3.12 mg/kg/injection, schedule: Q01DX009 (ip), vehicle: other, higher = longer survival) is 94 % of control; the T/C (endpoint: median survival time, dose: 6.25 mg/kg/injection, schedule: Q01DX009 (ip), vehicle: other, higher = longer survival) is 101 % of control; the T/C (endpoint: median survival time, dose: 12.5 mg/kg/injection, schedule: Q01DX009 (ip), vehicle: other, higher = longer survival) was 103 % of control; the T/C (endpoint: median survival time, dose: 25.0 mg/kg/injection, schedule: Q01DX009 (ip), vehicle: other, higher = longer survival) is 88 % of control.

As for `O=C1C2CCCCC2C(=O)N1c1nccs1` (stereo not drawn), the T/C was 58 % of control (endpoint: mean tumor weight, dose: 50.0 mg/kg/injection, schedule: Q01DX011 (ip), vehicle: carboxymethylcellulose (CMC), higher = larger tumour); 71 % of control (endpoint: mean tumor weight, dose: 100.0 mg/kg/injection, schedule: Q01DX011 (ip), vehicle: carboxymethylcellulose (CMC), higher = larger tumour); 84 % of control (endpoint: mean tumor weight, dose: 200.0 mg/kg/injection, schedule: Q01DX011 (ip), vehicle: carboxymethylcellulose (CMC), higher = larger tumour).

On to `CC1=CC(=O)N(NC(N)=O)C1=O`, for which the T/C was 107 % of control (endpoint: median survival time, dose: 12.5 mg/kg/injection, schedule: Q01DX009 (ip), vehicle: saline, higher = longer survival); 104 % of control (endpoint: median survival time, dose: 25.0 mg/kg/injection, schedule: Q01DX009 (ip), vehicle: saline, higher = longer survival); 90 % of control (endpoint: median survival time, dose: 50.0 mg/kg/injection, schedule: Q01DX009 (ip), vehicle: saline, higher = longer survival).

For the compound `COC(=O)C[C@](O)(CCC(C)(C)O)C(=O)O[C@@H]1C(OC)=C[C@]23CCCN2CCc2cc4c(cc2[C@H]13)OCO4`, the T/C reads like this: (endpoint: mean tumor weight, dose: 0.25 mg/kg/injection, schedule: Q01DX011 (ip), vehicle: saline, higher = larger tumour) 71 % of control; (endpoint: mean tumor weight, dose: 0.5 mg/kg/injection, schedule: Q01DX011 (ip), vehicle: saline, higher = larger tumour) 85 % of control; (endpoint: mean tumor weight, dose: 2.0 mg/kg/injection, schedule: Q01DX011 (ip), vehicle: saline, higher = larger tumour) 68 % of control.

For the compound `CCOC(=O)C(=CNc1cccc(Cl)c1)C(=O)OCC`, the T/C is, setting by setting: (endpoint: mean tumor weight, dose: 148.0 mg/kg/injection, schedule: Q01DX011 (ip), vehicle: other, higher = larger tumour) 153 % of control; (endpoint: mean tumor weight, dose: 222.0 mg/kg/injection, schedule: Q01DX011 (ip), vehicle: other, higher = larger tumour) 113 % of control.

In the case of `CC(=O)c1c(O)c(C)c(O)c(Cc2c(O)c3c(c(C(=O)/C=C/c4ccccc4)c2O)OC(C)(C)C=C3)c1O`, the T/C was 96 % of control under setting [2]; 82 % of control (endpoint: mean tumor weight, dose: 22.0 mg/kg/injection, schedule: Q01DX011 (ip), vehicle: saline, higher = larger tumour); 79 % of control (endpoint: mean tumor weight, dose: 35.0 mg/kg/injection, schedule: Q01DX011 (ip), vehicle: saline, higher = larger tumour).

Take `O=C(O)CSC1(SCC(=O)O)CCCCC1`: the T/C was 75 % of control (endpoint: mean tumor weight, dose: 133.0 mg/kg/injection, schedule: Q01DX011 (ip), vehicle: other, higher = larger tumour); 77 % of control (endpoint: mean tumor weight, dose: 200.0 mg/kg/injection, schedule: Q01DX011 (ip), vehicle: other, higher = larger tumour); 104 % of control (endpoint: mean tumor weight, dose: 300.0 mg/kg/injection, schedule: Q01DX011 (ip), vehicle: other, higher = larger tumour); 86 % of control (endpoint: mean tumor weight, dose: 450.0 mg/kg/injection, schedule: Q01DX011 (ip), vehicle: other, higher = larger tumour).

Consider `O=NN(CCCl)C(=O)NC1C2CC3CC(C2)CC1C3` (stereo not drawn), for which the T/C (endpoint: median survival time, dose: 10.0 mg/kg/injection, schedule: Q01DX001 (ip), vehicle: Klucel (hydroxypropylcellulose) (HPC), higher = longer survival) was 99 % of control and 111 % of control; the T/C (endpoint: median survival time, dose: 20.0 mg/kg/injection, schedule: Q01DX001 (ip), vehicle: Klucel (hydroxypropylcellulose) (HPC), higher = longer survival) was 100 % of control; the T/C (endpoint: median survival time, dose: 25.0 mg/kg/injection, schedule: Q01DX001 (ip), vehicle: saline with Tween-80, higher = longer survival) is 102 % of control; the T/C (endpoint: median survival time, dose: 38.0 mg/kg/injection, schedule: Q01DX001 (ip), vehicle: saline with Tween-80, higher = longer survival) was 101 % of control; the T/C (endpoint: median survival time, dose: 40.0 mg/kg/injection, schedule: Q01DX001 (ip), vehicle: Klucel (hydroxypropylcellulose) (HPC), higher = longer survival) is 106 % of control; the T/C (endpoint: median survival time, dose: 57.0 mg/kg/injection, schedule: Q01DX001 (ip), vehicle: saline with Tween-80, higher = longer survival) was 96 % of control. The T/C runs as follows: (endpoint: median survival time, dose: 80.0 mg/kg/injection, schedule: Q01DX001 (ip), vehicle: Klucel (hydroxypropylcellulose) (HPC), higher = longer survival) 110 % of control; (endpoint: median survival time, dose: 85.0 mg/kg/injection, schedule: Q01DX001 (ip), vehicle: saline with Tween-80, higher = longer survival) 99 % of control and 121 % of control; (endpoint: median survival time, dose: 160.0 mg/kg/injection, schedule: Q01DX001 (ip), vehicle: Klucel (hydroxypropylcellulose) (HPC), higher = longer survival) 113 % of control; (endpoint: median tumor weight (est.), dose: 25.0 mg/kg/injection, schedule: Q01DX001 (ip), vehicle: DMSO, higher = larger tumour) 39 % of control; (endpoint: median tumor weight (est.), dose: 25.0 mg/kg/injection, schedule: Q01DX001 (sc), vehicle: olive oil, sesame oil, peanut oil, higher = larger tumour) 80 % of control; (endpoint: median tumor weight (est.), dose: 38.0 mg/kg/injection, schedule: Q01DX001 (sc), vehicle: olive oil, sesame oil, peanut oil, higher = larger tumour) 60 % of control. The T/C reads like this: (endpoint: median tumor weight (est.), dose: 57.0 mg/kg/injection, schedule: Q01DX001 (ip), vehicle: DMSO, higher = larger tumour) 3 % of control; (endpoint: median tumor weight (est.), dose: 57.0 mg/kg/injection, schedule: Q01DX001 (sc), vehicle: olive oil, sesame oil, peanut oil, higher = larger tumour) 52 % of control; (endpoint: median tumor weight (est.), dose: 80.0 mg/kg/injection, schedule: Q01DX001 (ip), vehicle: saline with Tween-80, higher = larger tumour) 53 % of control; (endpoint: median tumor weight (est.), dose: 85.0 mg/kg/injection, schedule: Q01DX001 (sc), vehicle: olive oil, sesame oil, peanut oil, higher = larger tumour) 36 % of control; (endpoint: median tumor weight (est.), dose: 161.0 mg/kg/injection, schedule: Q01DX001 (ip), vehicle: saline with Tween-80, higher = larger tumour) 60 % of control; (endpoint: median tumor weight (est.), dose: 215.0 mg/kg/injection, schedule: Q01DX001 (ip), vehicle: saline with Tween-80, higher = larger tumour) 7 % of control.

Consider `O=c1[nH]c(=O)c2[nH]cnc2[nH]1`, for which the T/C was 97 % of control (endpoint: mean tumor weight, dose: 12.5 mg/kg/injection, schedule: Q01DX011 (ip), vehicle: saline, higher = larger tumour); 73 % of control (endpoint: mean tumor weight, dose: 25.0 mg/kg/injection, schedule: Q01DX011 (ip), vehicle: saline, higher = larger tumour); 75 % of control and 76 % of control (endpoint: mean tumor weight, dose: 50.0 mg/kg/injection, schedule: Q01DX011 (ip), vehicle: saline, higher = larger tumour); 118 % of control (endpoint: mean tumor weight, dose: 100.0 mg/kg/injection, schedule: Q01DX011 (ip), vehicle: saline, higher = larger tumour); 109 % of control (endpoint: mean tumor weight, dose: 200.0 mg/kg/injection, schedule: Q01DX011 (ip), vehicle: saline, higher = larger tumour).

As for `Nc1ncc(CNc2ccc(C(=O)NC(CCC(=O)O)C(=O)O)cc2)c(N)n1` (stereo not drawn), the T/C reads like this: under setting [1], 94 % of control; (endpoint: median survival time, dose: 100.0 mg/kg/injection, schedule: Q01DX009 (ip), vehicle: Klucel (hydroxypropylcellulose) (HPC), higher = longer survival) 100 % of control; (endpoint: median survival time, dose: 400.0 mg/kg/injection, schedule: Q01DX009 (ip), vehicle: Klucel (hydroxypropylcellulose) (HPC), higher = longer survival) 117 % of control.
